Paper PMC9714921 (PLOS Pathogens, 2022)
Values joined by “and” are separate entries in the source; they are usually repeats but may differ in a detail not shown here. Identical values can stand only once. Like-named read-outs stand apart in the source and are kept apart here.

How the values were obtained:
[1] = system: P. equorum N-AChR; conditions: read-out: EC50 μM ACh; accessory protein Ric-3; ref [40]; cited from earlier work
[2] = system: T. suis N-AChR; conditions: read-out: EC50 μM ACh; accessory protein Ric-3; ref [34]; cited from earlier work
[3] = system: C. elegans N-AChR; parameters: method as in Charvet et al., 2018 [40]; conditions: read-out: EC50 μM ACh; accessory protein Ric-3; ref Charvet et al., 2018 [40]; cited from earlier work
[4] = system: T. muris N-AChR; conditions: read-out: EC50 μM ACh; accessory protein Ric-3; ref [35]; cited from earlier work
[5] = system: TZC-ICL (T. callipaeda ICL in Asu-ACR-16); assay: Voltage-clamp electrophysiology, A. suum/T. callipaeda ACR-16 chimera in oocytes; format: cell-based; conditions: S2C Fig
Experimental: (§1) B. malayi acr-16 and accessory proteins ric-3, unc-50, unc-74 and molo-1 were cloned from adult female B. malayi cDNA received as a gift from Dr. T. Geary using the primers described in S1 Table. B. malayi eat-18 was prepared from two overlapping oligonucleotide primers. Other subunits were synthesized from their predicted genome sequence (Gene Universal, USA) (S2 Table). […] All sequences were cloned into the pTD2 oocyte expression vector. Asu-ACR-16 and Tzc-ACR-16 chimeras were constructed using appropriate restriction enzymes, reciprocal exchange through ligation and confirmed by sequencing (McLab, USA).
(§2) cRNA for oocyte injection was prepared with the mMESSAGE mMACHINE T7 kit following manufacturers protocol (Ambion, USA). Concentration was determined using a Nanodrop spectrophotometer. Desired subunit combinations with associated accessory proteins were mixed and diluted with nuclease-free water to a final concentration of 250 ng/uL for each construct.
(§3) Adult female X. laevis oocyte extraction was performed in accordance with the McGill University Animal Use Protocol 2015–7758 following standard protocol. Briefly, frog ovary lobes were placed in a Ca^2+-free OR2 solution (82 mM NaCl, 2 mM KCl, 1 mM MgCl2, 5 mM HEPES buffer, pH 7.3) and manually divided into clusters of <10 oocytes with thin tweezers followed by a 90-minute incubation in 10 mg/mL collagenase type II (Sigma-Aldrich, USA). Oocytes were washed in Ca^2+-free OR2 and placed ND96 solution (NaCl 96 mM, KCl 2 mM, CaCl2 1.8 mM, MgCl2 1 mM and HEPES 5 mM, pH 7.3) supplemented with sodium pyruvate 2.5 mM [86] and incubated at 18°C until cRNA injection. Oocytes were injected with 50 nL (12.5 ng of each injected gene) of the desired cRNA subunit and accessory protein combination mix with the NanojectII (Drummond Scientific, USA). Following injection, oocytes were incubated in ND96 buffer at 18°C until electrophysiology. All electrophysiology was conducted two days post-injection, except for the expression analysis assay in which oocytes were measured every day after injection for three consecutive days.
(§4) All drugs were dissolved in recording solution (NaCl 100 mM, KCl 2.5 mM, CaCl2 1 mM, HEPES 5 mM, pH 7.3) to a stock concentration of 10 mM and diluted to their final recording concentrations. Oxantel and bephenium were first dissolved in DMSO to ensure a final recording concentration contained less than 0.1% DMSO. For agonist profiling, all drugs were diluted to a concentration of 100 μM.
(§5) Oocytes were placed individually in an RC3Z chamber (Harvard Apparatus, USA) submerged in recording solution (NaCl 100 mM, KCl 2.5 mM, CaCl2 1 mM, HEPES 5 mM, pH 7.3). The RC3Z chamber was connected to a perfusion system containing recording solution and ligand solutions. Pulled glass capillaries (World Precision Instruments, USA) were filled with 3M KCl and the tips clipped and checked for appropriate resistance (between 0.5 and 5 MΩ). A 3M KCl agar bridge grounded the oocyte bath chamber. Measurements were made using an Axon Axoclamp 900A amplifier with Digidata1550M. […] Ligand solutions were applied to the oocytes with an approximate flow rate of 1.2 m/s and current responses measured. Oocytes were exposed to the ligand solution until a distinct current peak was observed followed by a wash with the recording solution until current returned to baseline for a minimum of 10 seconds until the next ligand exposure. For BAPTA-AM exposed oocytes, oocytes were incubated in 100 μM BAPTA-AM for four hours prior to electrophysiology recording. Data was analyzed using Clampex 9.2 (Axon Instruments, USA) and statistical analysis and graphs produced in Prism (GraphPad version 9.1). T-tests were used to compare responses with error bars representing standard error. For concentration-response curves, individual oocyte current response to the different ligand concentrations were normalized to the response obtained with 300 μM.

[6] = system: TZC-TM (Tzc-TM region in A. suum ACR-16); assay: as above; format: cell-based; conditions: S2C Fig
Experimental: as §1, §2, §3, §4, §5

[7] = system: ASU-ECD (A. suum ECD in Tzc-ACR-16); assay: as above; format: cell-based; conditions: S2C Fig
Experimental: as §1, §2, §3, §4, §5

[8] = system: TZC-ECD (T. callipaeda ECD in Asu-ACR-16); assay: as above; format: cell-based; conditions: S2C Fig
Experimental: as §1, §2, §3, §4, §5

[9] = system: ASU-ICL (A. suum ICL in Tzc-ACR-16); assay: as above; format: cell-based; conditions: S2C Fig
Experimental: as §1, §2, §3, §4, §5

[10] = system: ASU-TM (A. suum TM regions in Tzc-ACR-16); assay: as above; format: cell-based; conditions: S2C Fig
Experimental: as §1, §2, §3, §4, §5

[11] = system: N. americanus N-AChR; conditions: read-out: EC50 μM ACh; accessory protein Ric-3; ref [33]; cited from earlier work
[12] = system: Asu-ACR-16-REM; assay: Voltage-clamp electrophysiology, coding-sequence modified ACR-16 in oocytes; format: cell-based, A. suum; conditions: B. malayi ric-3 co-injected; agonist not named in the legend (ACh by the matching native values)
Experimental: as §1, §2
(§6) Adult female X. laevis oocyte extraction was performed in accordance with the McGill University Animal Use Protocol 2015–7758 following standard protocol. […] All electrophysiology was conducted two days post-injection, except for the expression analysis assay in which oocytes were measured every day after injection for three consecutive days. […]

[13] = molecular target: Asu-ACR-16-bmaICL chimera (Ascaris suum; Brugia malayi, UniProt A0A4E9FSR7+F1KYJ9); format: cell-based, A. suum (B. malayi ICL); conditions: listed as acetylcholine
Experimental: as §1, §2, §3
All drugs were dissolved in recording solution (NaCl 100 mM, KCl 2.5 mM, CaCl2 1 mM, HEPES 5 mM, pH 7.3) to a stock concentration of 10 mM and diluted to their final recording concentrations. […]
Oocytes were placed individually in an RC3Z chamber (Harvard Apparatus, USA) submerged in recording solution (NaCl 100 mM, KCl 2.5 mM, CaCl2 1 mM, HEPES 5 mM, pH 7.3). […] Ligand solutions were applied to the oocytes with an approximate flow rate of 1.2 m/s and current responses measured. […] Data was analyzed using Clampex 9.2 (Axon Instruments, USA) and statistical analysis and graphs produced in Prism (GraphPad version 9.1). […]

[14] = system: Tzc-ACR-16-REM; assay: Voltage-clamp electrophysiology, coding-sequence modified ACR-16 in oocytes; format: cell-based, T. callipaeda; conditions: B. malayi ric-3 co-injected; agonist not named in the legend (ACh by the matching native values)
Experimental: as §1, §2, §6

[15] = molecular target: Bma-ACR-16-asuICL chimera (Brugia malayi; Ascaris suum, UniProt A0A4E9FSR7+F1KYJ9); format: cell-based, B. malayi (A. suum ICL)
Experimental: as §1, §2, §3, §4, §5

In the case of CC(=O)OCC[N+](C)(C)C [ACh, acetylcholine], the EC50 [1] is given as 6.4 ± 0.6 µM, the EC50 [2] is given as 14.5 ± 1.03 µM and the EC50 [3] is given as 22 ± 1.2 µM. The EC50 [4] was 31.1 ± 0.3 µM, the “response to ACh” value [5] was 1959 ± 78 nA and the “response to ACh” value [6] was 2917 ± 105 nA. The “response to ACh” value [7] was 1819 ± 115 nA, the “response to ACh” value [8] was 42 ± 9 nA and the “response to ACh” value [9] was 2237 ± 98 nA. The “response to ACh” value [10] was 24 ± 8 nA, the EC50 [11] was 170 ± 19.2 µM and the current response [12] was 2197 ± 383 nA. For the same compound, the “current response to 100 μM acetylcholine” value ([13]; No accessory protein) was 22 ± 4 (n=14) nA, the “current response to 100 μM acetylcholine” value ([13]; co-injected: Bma-ric-3 (reference condition)) was 3021 ± 444 nA and 3021 ± 128 (n=12) nA and the “current response to 100 μM acetylcholine” value ([13]; co-injected: Bma-ric-3 + Cel-nra-2) was 2181 ± 99 (n=14) nA. The current response [14] was 587 ± 415 nA, the “current response to 100 μM acetylcholine” value ([15]; No accessory protein) was 0 ± 0 (n=15) nA and the “current response to 100 μM acetylcholine” value ([15]; co-injected: Bma-ric-3 (reference condition), listed as acetylcholine) was 59 ±43 nA and 59 ± 12 (n=14) nA. For the same compound, the “current response to 100 μM acetylcholine” value ([15]; co-injected: Bma-ric-3 + Bma-emc-6 + Cel-nra-2 + Cel-nra-4, listed as acetylcholine) was 1 ± 2 nA and 1 ± 1 (n=11) nA, the “current response to 100 μM acetylcholine” value ([15]; co-injected: Bma-ric-3 + Cel-emc-6) was 37 ± 12 (n=15) ns nA and the “current response to 100 μM acetylcholine” value ([15]; co-injected: Bma-ric-3 + Cel-nra-2 + Cel-nra-4, listed as acetylcholine) was 47 ± 18 (n=14) ns nA. The “current response to 100 μM acetylcholine” value ([15]; co-injected: Bma-ric-3 + Cel-nra-2, listed as acetylcholine) was 256 ± 89 (n=11) nA.
